In PubChem BioAssay (NCI):
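Test compounds were applied to cells in 96-well plates for 48 hours at 5 doses. TGI: concentration producing complete growth inhibition.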

Experiments:
Assay in all cases: inhibition of tumour cell growth, NCI panel, 48 h
786-0 renal = tested on: 786-0 renal
A498 renal = tested on: A498 renal
A549 NSCLC = tested on: A549 NSCLC
ACHN renal = tested on: ACHN renal
CAKI-1 renal = tested on: CAKI-1 renal
CCRF-CEM leukemia = tested on: CCRF-CEM leukemia
COLO 205 colon = tested on: COLO 205 colon
DLD-1 colon = tested on: DLD-1 colon
DMS 114 small cell lung = tested on: DMS 114 small cell lung
DMS 273 small cell lung = tested on: DMS 273 small cell lung
EKVX NSCLC = tested on: EKVX NSCLC
HCC-2998 colon = tested on: HCC-2998 colon
HCT-116 colon = tested on: HCT-116 colon
HL-60(TB) leukemia = tested on: HL-60(TB) leukemia
HOP-18 NSCLC = tested on: HOP-18 NSCLC
HOP-62 NSCLC = tested on: HOP-62 NSCLC
HOP-92 NSCLC = tested on: HOP-92 NSCLC
HT29 colon = tested on: HT29 colon
IGROV1 ovarian = tested on: IGROV1 ovarian
K-562 leukemia = tested on: K-562 leukemia
KM12 colon = tested on: KM12 colon
KM20L2 colon = tested on: KM20L2 colon
LOX IMVI melanoma = tested on: LOX IMVI melanoma
LXFL 529 NSCLC = tested on: LXFL 529 NSCLC
M14 melanoma = tested on: M14 melanoma
M19-MEL melanoma = tested on: M19-MEL melanoma
MALME-3M melanoma = tested on: MALME-3M melanoma
MOLT-4 leukemia = tested on: MOLT-4 leukemia
NCI-H226 lung = tested on: NCI-H226 lung
NCI-H23 lung = tested on: NCI-H23 lung
NCI-H460 lung = tested on: NCI-H460 lung
NCI-H522 lung = tested on: NCI-H522 lung
OVCAR-3 ovarian = tested on: OVCAR-3 ovarian
OVCAR-4 ovarian = tested on: OVCAR-4 ovarian
OVCAR-5 ovarian = tested on: OVCAR-5 ovarian
OVCAR-8 ovarian = tested on: OVCAR-8 ovarian
RPMI-8226 leukemia = tested on: RPMI-8226 leukemia
RXF 393 renal = tested on: RXF 393 renal
SF-268 CNS = tested on: SF-268 CNS
SF-295 CNS = tested on: SF-295 CNS
SF-539 CNS = tested on: SF-539 CNS
SK-MEL-2 melanoma = tested on: SK-MEL-2 melanoma
SK-MEL-28 melanoma = tested on: SK-MEL-28 melanoma
SK-MEL-5 melanoma = tested on: SK-MEL-5 melanoma
SK-OV-3 ovarian = tested on: SK-OV-3 ovarian
SN12C renal = tested on: SN12C renal
SNB-19 CNS = tested on: SNB-19 CNS
SNB-75 CNS = tested on: SNB-75 CNS
SR leukemia = tested on: SR leukemia
TK-10 renal = tested on: TK-10 renal
U251 CNS = tested on: U251 CNS
UACC-257 melanoma = tested on: UACC-257 melanoma
UACC-62 melanoma = tested on: UACC-62 melanoma
UO-31 renal = tested on: UO-31 renal
HCT-15 colon = tested on: HCT-15 colon
SNB-78 CNS = tested on: SNB-78 CNS
SW-620 colon = tested on: SW-620 colon

`COC(=O)N1[C@H]2Cc3c(OC)c(C)c(OC)c(OC)c3[C@@H]1/C(=C\c1cc(OC)c(OC)c(C)c1OC)N(Cc1ccccc1)C2=O` was tested. Which TGI (786-0 renal) did it give?
Its TGI is over 100 µM.

What about the TGI (A498 renal) of the same compound?
The TGI was over 100 µM.

What about the TGI (A549 NSCLC) of the same compound?
Its TGI is over 100 µM.

And the TGI (ACHN renal)?
Its TGI is over 100 µM.

What about the TGI (CAKI-1 renal) of the same compound?
Its TGI is over 100 µM.

And the TGI (CCRF-CEM leukemia)?
Its TGI is over 100 µM.

What about the TGI (COLO 205 colon) of the same compound?
Its TGI is 32 µM.

And the TGI (DLD-1 colon)?
Its TGI is over 100 µM.

And the TGI (DMS 114 small cell lung)?
The TGI was 35.3 µM.

And the TGI (DMS 273 small cell lung)?
The TGI was over 100 µM.

And the TGI (EKVX NSCLC)?
The TGI was over 100 µM.

What about the TGI (HCC-2998 colon) of the same compound?
The TGI was over 100 µM.

What about the TGI (HCT-116 colon) of the same compound?
The TGI was over 100 µM.

What about the TGI (HL-60(TB) leukemia) of the same compound?
The TGI was 30.2 µM.

What about the TGI (HOP-18 NSCLC) of the same compound?
Its TGI is over 100 µM.

What about the TGI (HOP-62 NSCLC) of the same compound?
The TGI was over 100 µM.

What about the TGI (HOP-92 NSCLC) of the same compound?
The TGI was over 100 µM.

And the TGI (HT29 colon)?
Its TGI is over 100 µM.

And the TGI (IGROV1 ovarian)?
Its TGI is over 100 µM.

And the TGI (K-562 leukemia)?
The TGI was over 100 µM.

What about the TGI (KM12 colon) of the same compound?
The TGI was over 100 µM.

And the TGI (KM20L2 colon)?
The TGI was over 100 µM.

And the TGI (LOX IMVI melanoma)?
The TGI was over 100 µM.

What about the TGI (LXFL 529 NSCLC) of the same compound?
The TGI was over 100 µM.

What about the TGI (M14 melanoma) of the same compound?
Its TGI is over 100 µM.

What about the TGI (M19-MEL melanoma) of the same compound?
The TGI was 60 µM.

And the TGI (MALME-3M melanoma)?
Its TGI is 88.7 µM.

What about the TGI (MOLT-4 leukemia) of the same compound?
The TGI was 75.2 µM.

What about the TGI (NCI-H226 lung) of the same compound?
The TGI was 11.7 µM.

And the TGI (NCI-H23 lung)?
Its TGI is over 100 µM.

What about the TGI (NCI-H460 lung) of the same compound?
Its TGI is over 100 µM.

And the TGI (NCI-H522 lung)?
The TGI was 37.2 µM.

What about the TGI (OVCAR-3 ovarian) of the same compound?
The TGI was over 100 µM.

What about the TGI (OVCAR-4 ovarian) of the same compound?
Its TGI is over 100 µM.

What about the TGI (OVCAR-5 ovarian) of the same compound?
The TGI was over 100 µM.

What about the TGI (OVCAR-8 ovarian) of the same compound?
Its TGI is over 100 µM.

And the TGI (RPMI-8226 leukemia)?
The TGI was over 100 µM.

And the TGI (RXF 393 renal)?
The TGI was over 100 µM.

And the TGI (SF-268 CNS)?
The TGI was over 100 µM.

What about the TGI (SF-295 CNS) of the same compound?
Its TGI is over 100 µM.

And the TGI (SF-539 CNS)?
Its TGI is over 100 µM.

What about the TGI (SK-MEL-2 melanoma) of the same compound?
Its TGI is over 100 µM.

What about the TGI (SK-MEL-28 melanoma) of the same compound?
The TGI was over 100 µM.

What about the TGI (SK-MEL-5 melanoma) of the same compound?
Its TGI is 53.8 µM.

What about the TGI (SK-OV-3 ovarian) of the same compound?
The TGI was over 100 µM.

And the TGI (SN12C renal)?
The TGI was over 100 µM.

What about the TGI (SNB-19 CNS) of the same compound?
Its TGI is over 100 µM.

What about the TGI (SNB-75 CNS) of the same compound?
Its TGI is over 100 µM.

And the TGI (SR leukemia)?
Its TGI is 94.1 µM.

What about the TGI (TK-10 renal) of the same compound?
Its TGI is over 100 µM.

And the TGI (U251 CNS)?
The TGI was over 100 µM.

And the TGI (UACC-257 melanoma)?
Its TGI is over 100 µM.

And the TGI (UACC-62 melanoma)?
The TGI was over 100 µM.

What about the TGI (UO-31 renal) of the same compound?
Its TGI is over 100 µM.

Which results are given for `COC(=O)c1cnc2nc(N3CCOCC3)[nH]n2c1=O`?
TGI (786-0 renal): > 100 µM; TGI (A498 renal): > 100 µM; TGI (A549 NSCLC): > 100 µM; TGI (ACHN renal): > 100 µM; TGI (CAKI-1 renal): > 100 µM; TGI (CCRF-CEM leukemia): > 100 µM; TGI (COLO 205 colon): > 100 µM; TGI (DMS 114 small cell lung): > 100 µM; TGI (DMS 273 small cell lung): > 100 µM; TGI (EKVX NSCLC): > 100 µM; TGI (HCC-2998 colon): > 100 µM; TGI (HCT-116 colon): > 100 µM; TGI (HCT-15 colon): > 100 µM; TGI (HL-60(TB) leukemia): > 100 µM; TGI (HOP-62 NSCLC): > 100 µM; TGI (HOP-92 NSCLC): > 100 µM; TGI (HT29 colon): > 100 µM; TGI (IGROV1 ovarian): > 100 µM; TGI (K-562 leukemia): > 100 µM; TGI (KM12 colon): > 100 µM; TGI (KM20L2 colon): > 100 µM; TGI (LOX IMVI melanoma): > 100 µM; TGI (M14 melanoma): > 100 µM; TGI (M19-MEL melanoma): > 100 µM; TGI (MALME-3M melanoma): > 100 µM; TGI (MOLT-4 leukemia): > 100 µM; TGI (NCI-H226 lung): > 100 µM; TGI (NCI-H23 lung): > 100 µM; TGI (NCI-H460 lung): > 100 µM; TGI (NCI-H522 lung): > 100 µM; TGI (OVCAR-3 ovarian): > 100 µM; TGI (OVCAR-4 ovarian): > 100 µM; TGI (OVCAR-5 ovarian): > 100 µM; TGI (OVCAR-8 ovarian): > 100 µM; TGI (RPMI-8226 leukemia): > 100 µM; TGI (RXF 393 renal): > 100 µM; TGI (SF-268 CNS): > 100 µM; TGI (SF-295 CNS): > 100 µM; TGI (SF-539 CNS): > 100 µM; TGI (SK-MEL-2 melanoma): > 100 µM; TGI (SK-MEL-28 melanoma): > 100 µM; TGI (SK-MEL-5 melanoma): > 100 µM; TGI (SK-OV-3 ovarian): > 100 µM; TGI (SN12C renal): > 100 µM; TGI (SNB-19 CNS): > 100 µM; TGI (SNB-75 CNS): > 100 µM; TGI (SNB-78 CNS): > 100 µM; TGI (SR leukemia): > 100 µM; TGI (SW-620 colon): > 100 µM; TGI (TK-10 renal): > 100 µM; TGI (U251 CNS): > 100 µM; TGI (UACC-257 melanoma): > 100 µM; TGI (UACC-62 melanoma): > 100 µM; TGI (UO-31 renal): > 100 µM
